What was measured:
[1] = target: T1, cloned human ETA receptor (Homo sapiens, UniProt P25101); test: Test A binding assay: competition with 125I-ET-1, binding to ETA receptors; conditions: [125I]Tyr13 ET-1 displacement, 37° C., 2 hours
T1 sequence (P25101 21-427): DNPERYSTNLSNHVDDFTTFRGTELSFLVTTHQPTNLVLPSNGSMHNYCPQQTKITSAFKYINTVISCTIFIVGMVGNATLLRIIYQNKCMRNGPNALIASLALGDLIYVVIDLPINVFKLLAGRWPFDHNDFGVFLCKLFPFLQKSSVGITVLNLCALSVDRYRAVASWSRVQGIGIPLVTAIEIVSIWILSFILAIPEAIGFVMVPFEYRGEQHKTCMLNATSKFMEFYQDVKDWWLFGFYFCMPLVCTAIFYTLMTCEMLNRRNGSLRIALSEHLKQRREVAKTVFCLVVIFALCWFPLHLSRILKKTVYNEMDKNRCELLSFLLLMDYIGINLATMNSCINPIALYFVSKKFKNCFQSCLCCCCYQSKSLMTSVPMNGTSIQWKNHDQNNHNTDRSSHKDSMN
Description: Competition between test compounds and ^125I-ET-1 binding to human endothelin receptors is determined as follows.
25 ul of a 30 pM solution of [^125I]Tyr^13 ET-1 (specific activity 2,200 Ci/mM) is mixed with 25 μl samples of test compound (final concentrations in the range 0.1 nM-50.000 nM). 200 μl of a solution containing cloned human ETA receptor (0.75 pmoles receptor protein/ml). 50 mM Tris, 0.5 mM CaCl2, 0.1% human serum albumen. 0.1% bacitracin. 0.05% Tween 20, pH 7.4 is added. The solution is mixed at 37° C. for 2 hours. After the incubation, the unbound ligand is separated from receptor bound ligand by filtration with a Brandel cell harvester, followed by three washes of buffer. Filter papers are counted for radioactivity, and the IC50 (the concentration of test compound at which 50% of the radio-labelled compound is unbound) determined for the concentration range tested.

[2] = tested on: neointimal formation; conditions: S. Douglas et al. Circ Res, 75, 1994; cited from earlier work

Row | melting point | IC50 [1] | SMILES | also measured
1 | 145 to 150 °C |  | COc1cc(C)ccc1S(=O)(=O)NC(=O)C(c1ccc2c(c1)OCO2)c1cn(C)c2ccc(Br)cc12 (centres unmarked) [Example 79, 3-{1-(1,3-Benzodioxol-5-yl)-2-[(2-methoxy-4-methylphenyl)sulfonamido]-2-oxoethyl}-5-bromo-1-methyl-1H-indole] | 
2 |  | < 500 nM | COc1cc(C)ccc1S(=O)(=O)NC(=O)C(c1ccc2c(c1)OCO2)c1cn(C)c2cc(C(C)=O)ccc12 (centres unmarked) [Example 101, 6-Acetyl-3-{1-(1,3-benzodioxol-5-yl)-2-[(2-methoxy-4-methylphenyl)sulfonamido]-2-oxoethyl}-1-methyl-1H-indole] | 
3 |  | < 500 nM | COCCn1cc(C(C(=O)NS(=O)(=O)c2ccc(C)cc2OC)c2ccc3c(c2)OCO3)c2ccc(C(N)=O)cc21 (centres unmarked) [Example 109, 3-{1-(1,3-benzodioxol-5-yl)-2-[(4-methyl-2-methoxyphenyl)sulfonamido]-2-oxoethyl}-1-(2-methoxyethyl)-1H-6-indolecarboxamide] | 
4 | 191 to 193 °C |  | Cn1cc(C(C(=O)O)c2ccc3c(c2)OCO3)c2cc(Br)ccc21 (centres unmarked) [Example 68, 2-(1,3-Benzodioxol-5-yl)-2-(5-bromo-1-methyl-1H-3-indolyl)acetic acid] | 
5 |  | < 500 nM | COc1cc(C)ccc1S(=O)(=O)NC(=O)C(c1ccc2c(c1)OCO2)c1cn(C)c2cc(CO)ccc12 (centres unmarked) [Example 65, 3-{1-(1,3-Benzodioxol-5-yl)-2-[(2-methoxy-4-methylphenyl)sulfonamido]-2-oxoethyl}-6-(hydroxymethyl)-1-methyl-1H-indole] | 
6 | 145 to 150 °C (dec.) |  | COc1cc(C)ccc1S(=O)(=O)NC(=O)C(c1ccc2c(c1)OCO2)c1cn(C)c2cc(Br)ccc12 (centres unmarked) [Example 85, 3-{1-(1,3-benzodioxol-5-yl)-2-[(2-methoxy-4-methylphenyl)sulfonamido]-2-oxoethyl}-6-bromo-1-methyl-1H-indole] | 
7 |  | < 500 nM | COc1cc(C)ccc1S(=O)(=O)NC(=O)C(c1ccc2c(c1)OCO2)c1cn(C)c2cc(F)ccc12 (centres unmarked) [Example 83] | 
8 | 235 °C (dec.) |  | COc1cc(C)ccc1S(=O)(=O)NC(=O)C(c1cc(OC)c2c(c1)OCO2)c1cn(C)c2cc(Br)ccc12 (centres unmarked) [Example 92, 6-Bromo-3-{1-(7-methoxy-1,3-benzodioxol-5-yl)-2-[(2-methoxy-4-methylphenyl)sulfonamido]-2-oxoethyl}-1-methyl-1H-indole] | 
9 |  |  | CCCOc1ccc2c(c1)[C@@H](c1ccc(OC)cc1OCC(=O)O)[C@H](C(=O)O)[C@H]2c1ccc2c(c1)OCO2 [SB-209670] | reduction in neointimal formation relative to control animals [2]: 50%
10 |  | < 500 nM | COc1cc(C)ccc1S(=O)(=O)NC(=O)C(c1ccc2c(c1)OCO2)c1cn(C)c2cc(C(=O)O)ccc12 (centres unmarked) [Example 17, 3-{1-(1,3-benzodioxol-5-yl)-2-[(2-methoxy-4-methylphenyl)sulfonamido]-2-oxoethyl}-1-methyl-1H-6-indolecarboxylic acid] | 
11 | 207 to 209 °C |  | Cc1ccc(S(=O)(=O)NC(=O)C(c2cc3c(cc2Cl)OCO3)c2cn(C)c3cc(CO)ccc23)cc1 (centres unmarked) [Example 99, 3-{1-(6-Chloro-1,3-benzodioxol-5-yl)-2-[(4-methylphenyl)sulfonamido]-2-oxoethyl}-6-(hydroxymethyl)-1-methyl-1H-indole] | 

From patent US6384070B2, “Indole derivatives useful as endothelin receptor antagonists” (Pfizer Inc., priority 1996, dated 2002)
